Like-named read-outs stand apart in the source and are kept apart here.
Target: T1, human OX2R (Homo sapiens, UniProt O43614)
T1 construct: expressed in transfected cells; host or cells: CHO (Chinese hamster ovary) cells, grown under G418 selection
T1 sequence (O43614 1-444): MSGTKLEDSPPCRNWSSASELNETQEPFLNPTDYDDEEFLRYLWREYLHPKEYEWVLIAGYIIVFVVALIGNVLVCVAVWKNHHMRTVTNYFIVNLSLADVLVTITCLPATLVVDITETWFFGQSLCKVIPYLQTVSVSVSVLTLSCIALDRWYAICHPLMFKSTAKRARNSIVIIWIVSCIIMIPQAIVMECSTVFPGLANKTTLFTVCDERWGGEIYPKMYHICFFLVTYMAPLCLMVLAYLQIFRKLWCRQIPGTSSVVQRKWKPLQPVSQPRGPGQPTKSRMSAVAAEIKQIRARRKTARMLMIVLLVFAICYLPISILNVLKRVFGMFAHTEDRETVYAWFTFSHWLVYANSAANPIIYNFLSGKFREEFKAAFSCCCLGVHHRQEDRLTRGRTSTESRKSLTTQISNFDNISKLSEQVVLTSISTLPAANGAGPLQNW
Experiment: IPOne (IP-1 accumulation) assay in CHO cells expressing human OX2R
Format: cell-based
Conditions: for Emax, % of reference agonist: OX2R, percentage of sample raw value/mean max effect (reference compound at 1 uM with 100% activity)
Description: The utility of the compounds in accordance with the present invention as orexin receptor OX1R and/or OX2R agonists may be readily determined without undue experimentation by methodology well known in the art. Both the OX1R and/or OX2R G-coupled protein receptors (GPCRs) couple through the Gaq signaling pathway, which ultimately promotes calcium mobilization via inositol triphosphate (IP3) production. The half-life of IP-3 is relatively short, being rapidly metabolized to inositol monophosphate (IP-1), which can be readily detected using a commercially available assay kit (IP-One; Cisbio; cat #621PAPEC) coupled with a cell line expressing the target receptor(s) of interest. The utility of the compounds in accordance with the present invention as orexin receptor OX1R and/or OX2R agonists may be determined utilizing this assay.
In a typical experiment, the OX1 and OX2 receptor agonist activity is determined in accordance with the following general experimental method. Chinese hamster ovary (CHO) cells expressing human OX1R and/or the human OX2R were grown in Iscove's modified DMEM containing glutaMAX™, 1% G418, 100 U/mL penicillin, 100 μg/mL streptomycin and 10% heat-inactivated qualified fetal bovine serum (FBS). The OX2R cells were seeded at 10,000 cells/well/50 μL and the OX1R cells were seeded at 20,000 cells/well/50 μL into 384-well white tissue culture plates (Greiner; cat #781080). All cell/media reagents were from GIBCO-Invitrogen Corp. The seeded cell plate(s) were incubated at 37° C. with 5% CO2 and 85% humidity for 20-24 hours. On the day of the assay, assay-ready compound plates were prepared using an acoustic liquid handler (ECHO; Labcyte), which dispensed sufficient volume of test compound stock (10 mM in DMSO) or 100% DMSO to prepare 10 point, ½-log dilutions in a final volume of 202.5 nL/well in all test wells of a 384-well diamond plate (Labcyte). Following completion of assay-ready plates, importantly, the next three steps were performed with minimal delay: 1) 20 μl of 1× stimulation buffer was added to the compound plate using a Multidrop Combi (small cassette, Thermo Fisher Scientific cat #24073290); 2) culture medium was removed from the cell plate using the Bluewasher plate washer (gentle spin; BlueCatBio); 3) 14 μl of compound/stimulation buffer mixture was added to the cell plate using a Bravo liquid handler (Agilent) prior to incubating cell plates at 37° C. with 5% CO2 and 85% humidity for 1 or 2 hours (OX1R and OX2R, respectively). During this incubation, IP-one detection reagents were prepared (38:1:1 lysis buffer:D2:AB-cryptate reagents). Six μL of mixed detection reagents were added to the cell plate using a Multidrop Combi (small cassette, Thermo Fisher Scientific cat #24073290) and incubated 60 minutes at room temperature in the dark. Fluorescence signal was detected using an Envision plate reader (Perkin Elmer) [LANCE/DELFIA Dual Enh (Em: APC 665; Ex: Cy5 620)].
For each compound, data were fit to a four parameter logistic fit (ActivityBase software) and the EC50 was reported as the inflection point of the resulting curve. Percent effect for each test compound was determined as the percentage of sample raw value/mean max effect, where the mean max effect was derived from the mean raw value of 32 control wells per assay plate (using Orexin A (cat #003-30) at 1 μM for human OX1R and a reference compound at 1 uM with 100% activity previously established by comparison to Orexin A for human OX2R). The intrinsic orexin receptor agonist activity of a compound which may be used in the present invention may be determined by these assays.

[1] = CHO cells expressing human OX2R, IP-One assay, 2 hours incubation, four parameter logistic fit, read-out: OX2R Potency, EC50

| Emax, % of reference agonist [%] | EC50 [1] [nM] | SMILES | EC50 [nM] |
| --- | --- | --- | --- |
| 96.4 | 328 | COC(=O)N1CC[C@H](NS(C)(=O)=O)[C@@H]1CO[C@H]1CC[C@@H](c2ccccc2)CC1 (relative stereo) [Example 2, methyl (CIS)-3-(methylsulfonamido)-2-((((CIS)-4-phenylcyclohexyl)oxy)-methyl)pyrrolidine-1-carboxylate] |  |
| 101.3 | 272 | CC(=O)N1CC[C@H](NS(C)(=O)=O)[C@@H]1CO[C@H]1CC[C@@H](c2ccccc2)CC1 (relative stereo) [Example 3, N-((CIS)-1-acetyl-2-((((CIS)-4-phenylcyclohexyl)oxy)methyl)pyrrolidin-3-yl)methanesulfonamide] |  |
| 98.9 | 252 | CCOC(=O)N1CC[C@@H](NS(C)(=O)=O)[C@H]1CO[C@H]1CC[C@@H](c2ccccc2)CC1 (relative stereo) [Example 4, ethyl (CIS)-3-(methylsulfonamido)-2-((((CIS)-4-phenylcyclohexyl)oxy)methyl) pyrrolidine-1-carboxylate] |  |
| 92.8 | 2630 | CC(C)OC(=O)N1CC[C@@H](NS(C)(=O)=O)[C@H]1CO[C@H]1CC[C@@H](c2ccccc2)CC1 (relative stereo) [Example 5, isopropyl (CIS)-3-(methylsulfonamido)-2-((((CIS)-4-phenylcyclohexyl)oxy)methyl) pyrrolidine-1-carboxylate] |  |
| 98.4 | 216 | CS(=O)(=O)N[C@@H]1CCN(C(=O)OCCF)[C@@H]1CO[C@H]1CC[C@@H](c2ccccc2)CC1 (relative stereo) [Example 6, 2-fluoroethyl (CIS)-3-(methylsulfonamido)-2-((((CIS)-4-phenylcyclohexyl)oxy)methyl) pyrrolidine-1-carboxylate] |  |
| 98.8 | 361 | CC(=O)OCC(=O)N1CC[C@H](NS(C)(=O)=O)[C@@H]1CO[C@H]1CC[C@@H](c2ccccc2)CC1 (relative stereo) [Example 7, 2-((CIS)-3-(methylsulfonamido)-2-((((CIS)-4-phenylcyclohexyl)oxy)methyl)pyrrolidin-1-yl)-2-oxoethyl acetate] |  |
| 101.6 | 77.9 | CS(=O)(=O)N[C@H]1CCN(C(=O)C2CC2)[C@H]1CO[C@H]1CC[C@@H](c2ccccc2)CC1 (relative stereo) [Example 8, N-((CIS)-1-(cyclopropanecarbonyl)-2-((((CIS)-4-phenylcyclohexyl)oxy)methyl)pyrrolidin-3-yl) methanesulfonamide] |  |
| 99.2 | 36.4 | CC(C)NC(=O)N1CC[C@@H](NS(C)(=O)=O)[C@H]1CO[C@H]1CC[C@@H](c2ccccc2)CC1 (relative stereo) [Example 9, (CIS)-N-isopropyl-3-(methylsulfonamido)-2-((((CIS)-4-phenylcyclohexyl)oxy)methyl) pyrrolidine-1-carboxamide] |  |
| 103.7 | 3.65 | CS(=O)(=O)N[C@H]1CCN(C(=O)NCC(F)(F)F)[C@H]1CO[C@H]1CC[C@@H](c2ccccc2)CC1 (relative stereo) [Example 10, (CIS)-3-(methylsulfonamido)-2-((((CIS)-4-phenylcyclohexyl)oxy)methyl)-N-(2,2,2-trifluoroethyl)pyrrolidine-1-carboxamide] |  |
| 99.9 | 136 | CCS(=O)(=O)N[C@H]1CCN(C(=O)OC)[C@H]1CO[C@H]1CC[C@@H](c2ccccc2)CC1 (relative stereo) [Example 13, methyl (CIS)-3-(ethylsulfonamido)-2-((((CIS)-4-phenylcyclohexyl)oxy)methyl)pyrrolidine-1-carboxylate] |  |
| 101.3 | 372 | COC(=O)N1CC[C@@H](NS(=O)(=O)C(C)C)[C@H]1CO[C@H]1CC[C@@H](c2ccccc2)CC1 (relative stereo) [Example 14, methyl (CIS)-3-((1-methylethyl)sulfonamido)-2-((((CIS)-4-phenylcyclohexyl)oxy)methyl) pyrrolidine-1-carboxylate] |  |
| 99.8 | 299 | COC(=O)N1CC[C@@H](NS(=O)(=O)C2CC2)[C@H]1CO[C@H]1CC[C@@H](c2ccccc2)CC1 (relative stereo) [Example 15, methyl (CIS)-3-(cyclopropanesulfonamido)-2-((((CIS)-4-phenylcyclohexyl)oxy)methyl) pyrrolidine-1-carboxylate] |  |
| 100.7 | 177 | COC(=O)N1CC[C@@H](NS(=O)(=O)CF)[C@H]1CO[C@H]1CC[C@@H](c2ccccc2)CC1 (relative stereo) [Example 16, methyl (CIS)-3-((fluoromethyl)sulfonamido)-2-((((CIS)-4-phenylcyclohexyl)oxy)methyl) pyrrolidine-1-carboxylate] |  |
| 82.3 | 3700 | COC(=O)N1CC[C@H](NS(=O)(=O)c2ccccc2)[C@@H]1CO[C@H]1CC[C@@H](c2ccccc2)CC1 (relative stereo) [Example 17, methyl (CIS)-2-((((CIS)-4-phenylcyclohexyl)oxy)methyl)-3-(phenylsulfonamido)pyrrolidine-1-carboxylate] |  |
| 98.5 | 66.5 | CNS(=O)(=O)N[C@@H]1CCN(C(=O)OC)[C@@H]1CO[C@H]1CC[C@@H](c2ccccc2)CC1 (relative stereo) [Example 18, methyl (CIS)-3-((N-methylsulfamoyl)amino)-2-((((CIS)-4-phenylcyclohexyl)oxy)methyl) pyrrolidine-1-carboxylate] |  |
| 98.8 | 39.4 | COC(=O)N1CC[C@@H](NS(=O)(=O)N(C)C)[C@H]1CO[C@H]1CC[C@@H](c2ccccc2)CC1 (relative stereo) [Example 19, methyl (CIS)-3-((N,N-dimethylsulfamoyl)amino)-2-((((CIS)-4-phenylcyclohexyl)oxy)methyl) pyrrolidine-1-carboxylate] |  |
| 96.4 | 1010 | CS(=O)(=O)N[C@H]1CCN(C(=O)CC(F)(F)F)[C@H]1CO[C@H]1CC[C@@H](c2ccccc2)CC1 (relative stereo) [Example 20, N-((CIS)-2-((((CIS)-4-phenylcyclohexyl)oxy)methyl)-1-(3,3,3-trifluoropropanoyl)pyrrolidin-3-yl)methanesulfonamide] |  |

| SMILES | Emax, % of reference agonist [%] | EC50 [1] [nM] | EC50 [nM] |
| --- | --- | --- | --- |
| CCNC(=O)N1CC[C@H](NS(C)(=O)=O)[C@@H]1CO[C@H]1CC[C@@H](c2ccccc2)CC1 (relative stereo) [Example 1, (CIS)-N-ethyl-3-(methylsulfonamido)-2-((((CIS)-4-phenylcyclohexyl)oxy)methyl)pyrrolidine-1-carboxamide] | 99.6 |  | 12 |
